Assay results taken from PubChem BioAssay (NCI).
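Step 1: Grow cells in 96-well plates. Step 2: Expose to compound for 48 hours at 5 concentrations. Step 3: Interpolate endpoints linearly; if unreached, use highest concentration. The concentration for full growth arrest is given as TGI.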

Tested on: HCT-15 colon
Assay: NCI anticancer screen, dose series, 48 h

| Structure (SMILES) | TGI |
| --- | --- |
| CCN(CC)CCn1nc(N)c2nc3cc(Cl)ccc3nc21 | > 100 µM |
| Cc1ccc(S(=O)(=O)C2=Cc3ccc(C(F)(F)F)cc3C2(O)c2cccc(C(F)(F)F)c2)cc1 (stereo not given) | 4.27 µM |
| Nc1nc(Cl)cc(NCCO)n1 | > 100 µM |
| COc1cccc(OC)c1/C=C1\OC(=O)c2cccc(OC)c21 | > 100 µM |

Tested on: 786-0 renal
Assay: NCI anticancer screen, dose series, 48 h

| Structure (SMILES) | TGI |
| --- | --- |
| Cc1cn2c(=O)c3ccccc3nc2s1 | > 100 µM |
| O=C(CC(c1ccccc1)N1CCCCC1)c1ccccc1 (stereo not given) | 25.9 µM |
| O=C(c1ccccc1)c1c(-c2ccccc2)[nH]n(-c2ccc([N+](=O)[O-])cc2)c(=O)c1=O | > 100 µM |
| CCN(CC)CCn1nc(N)c2nc3cc(Cl)ccc3nc21 | > 100 µM |
| Cc1ccc(S(=O)(=O)C2=Cc3ccc(C(F)(F)F)cc3C2(O)c2cccc(C(F)(F)F)c2)cc1 (stereo not given) | 3.96 µM |
| Nc1nc(Cl)cc(NCCO)n1 | > 100 µM |
| COc1cccc(OC)c1/C=C1\OC(=O)c2cccc(OC)c21 | > 100 µM |

Tested on: RPMI-8226 leukemia
Assay: NCI anticancer screen, dose series, 48 h

| Structure (SMILES) | TGI |
| --- | --- |
| Cc1cn2c(=O)c3ccccc3nc2s1 | > 100 µM |
| O=C(CC(c1ccccc1)N1CCCCC1)c1ccccc1 (stereo not given) | 5.23 µM |
| O=C(c1ccccc1)c1c(-c2ccccc2)[nH]n(-c2ccc([N+](=O)[O-])cc2)c(=O)c1=O | > 100 µM |
| CCN(CC)CCn1nc(N)c2nc3cc(Cl)ccc3nc21 | > 100 µM |
| Cc1ccc(S(=O)(=O)C2=Cc3ccc(C(F)(F)F)cc3C2(O)c2cccc(C(F)(F)F)c2)cc1 (stereo not given) | > 23 µM |
| Nc1nc(Cl)cc(NCCO)n1 | > 100 µM |
| COc1cccc(OC)c1/C=C1\OC(=O)c2cccc(OC)c21 | > 100 µM |

Tested on: LXFL 529 NSCLC
Assay: NCI anticancer screen, dose series, 48 h

| Structure (SMILES) | TGI |
| --- | --- |
| Cc1cn2c(=O)c3ccccc3nc2s1 | > 100 µM |

Tested on: DMS 114 small cell lung
Assay: NCI anticancer screen, dose series, 48 h

| Structure (SMILES) | TGI |
| --- | --- |
| Cc1cn2c(=O)c3ccccc3nc2s1 | > 100 µM |

Tested on: MDA-MB-231 breast
Assay: NCI anticancer screen, dose series, 48 h

| Structure (SMILES) | TGI |
| --- | --- |
| O=C(CC(c1ccccc1)N1CCCCC1)c1ccccc1 (stereo not given) | 34.6 µM |
| O=C(c1ccccc1)c1c(-c2ccccc2)[nH]n(-c2ccc([N+](=O)[O-])cc2)c(=O)c1=O | 98.9 µM |
| CCN(CC)CCn1nc(N)c2nc3cc(Cl)ccc3nc21 | > 100 µM |
| Cc1ccc(S(=O)(=O)C2=Cc3ccc(C(F)(F)F)cc3C2(O)c2cccc(C(F)(F)F)c2)cc1 (stereo not given) | 5.06 µM |
| Nc1nc(Cl)cc(NCCO)n1 | > 100 µM |
| COc1cccc(OC)c1/C=C1\OC(=O)c2cccc(OC)c21 | > 100 µM |

Tested on: MCF7 breast
Assay: NCI anticancer screen, dose series, 48 h

| Structure (SMILES) | TGI |
| --- | --- |
| O=C(CC(c1ccccc1)N1CCCCC1)c1ccccc1 (stereo not given) | 15.4 µM |
| O=C(c1ccccc1)c1c(-c2ccccc2)[nH]n(-c2ccc([N+](=O)[O-])cc2)c(=O)c1=O | > 100 µM |
| CCN(CC)CCn1nc(N)c2nc3cc(Cl)ccc3nc21 | > 100 µM |
| Cc1ccc(S(=O)(=O)C2=Cc3ccc(C(F)(F)F)cc3C2(O)c2cccc(C(F)(F)F)c2)cc1 (stereo not given) | 4.86 µM |
| Nc1nc(Cl)cc(NCCO)n1 | > 100 µM |
| COc1cccc(OC)c1/C=C1\OC(=O)c2cccc(OC)c21 | > 100 µM |

Tested on: U251 CNS
Assay: NCI anticancer screen, dose series, 48 h

| Structure (SMILES) | TGI |
| --- | --- |
| Cc1cn2c(=O)c3ccccc3nc2s1 | > 100 µM |
| O=C(CC(c1ccccc1)N1CCCCC1)c1ccccc1 (stereo not given) | 21.9 µM |
| O=C(c1ccccc1)c1c(-c2ccccc2)[nH]n(-c2ccc([N+](=O)[O-])cc2)c(=O)c1=O | > 100 µM |
| CCN(CC)CCn1nc(N)c2nc3cc(Cl)ccc3nc21 | > 100 µM |
| Cc1ccc(S(=O)(=O)C2=Cc3ccc(C(F)(F)F)cc3C2(O)c2cccc(C(F)(F)F)c2)cc1 (stereo not given) | 3.6 µM |
| Nc1nc(Cl)cc(NCCO)n1 | > 100 µM |
| COc1cccc(OC)c1/C=C1\OC(=O)c2cccc(OC)c21 | > 100 µM |

Tested on: OVCAR-5 ovarian
Assay: NCI anticancer screen, dose series, 48 h

| Structure (SMILES) | TGI |
| --- | --- |
| Cc1cn2c(=O)c3ccccc3nc2s1 | > 100 µM |
| O=C(CC(c1ccccc1)N1CCCCC1)c1ccccc1 (stereo not given) | 32.9 µM |
| O=C(c1ccccc1)c1c(-c2ccccc2)[nH]n(-c2ccc([N+](=O)[O-])cc2)c(=O)c1=O | > 100 µM |
| CCN(CC)CCn1nc(N)c2nc3cc(Cl)ccc3nc21 | > 100 µM |
| Cc1ccc(S(=O)(=O)C2=Cc3ccc(C(F)(F)F)cc3C2(O)c2cccc(C(F)(F)F)c2)cc1 (stereo not given) | 5.07 µM |
| Nc1nc(Cl)cc(NCCO)n1 | > 100 µM |
| COc1cccc(OC)c1/C=C1\OC(=O)c2cccc(OC)c21 | > 100 µM |

Tested on: MDA-N
Assay: NCI anticancer screen, dose series, 48 h

| Structure (SMILES) | TGI |
| --- | --- |
| O=C(CC(c1ccccc1)N1CCCCC1)c1ccccc1 (stereo not given) | 27.3 µM |
| O=C(c1ccccc1)c1c(-c2ccccc2)[nH]n(-c2ccc([N+](=O)[O-])cc2)c(=O)c1=O | > 100 µM |
| CCN(CC)CCn1nc(N)c2nc3cc(Cl)ccc3nc21 | > 100 µM |
| Cc1ccc(S(=O)(=O)C2=Cc3ccc(C(F)(F)F)cc3C2(O)c2cccc(C(F)(F)F)c2)cc1 (stereo not given) | 5.88 µM |
| Nc1nc(Cl)cc(NCCO)n1 | > 100 µM |
| COc1cccc(OC)c1/C=C1\OC(=O)c2cccc(OC)c21 | 3.32 µM |

Tested on: SK-MEL-2 melanoma
Assay: NCI anticancer screen, dose series, 48 h

| Structure (SMILES) | TGI |
| --- | --- |
| Cc1cn2c(=O)c3ccccc3nc2s1 | > 100 µM |
| O=C(CC(c1ccccc1)N1CCCCC1)c1ccccc1 (stereo not given) | 35.4 µM |
| O=C(c1ccccc1)c1c(-c2ccccc2)[nH]n(-c2ccc([N+](=O)[O-])cc2)c(=O)c1=O | 61.5 µM |
| CCN(CC)CCn1nc(N)c2nc3cc(Cl)ccc3nc21 | > 100 µM |
| Cc1ccc(S(=O)(=O)C2=Cc3ccc(C(F)(F)F)cc3C2(O)c2cccc(C(F)(F)F)c2)cc1 (stereo not given) | 3.57 µM |
| Nc1nc(Cl)cc(NCCO)n1 | > 100 µM |
| COc1cccc(OC)c1/C=C1\OC(=O)c2cccc(OC)c21 | > 30.1 µM |

Tested on: SK-MEL-5 melanoma
Assay: NCI anticancer screen, dose series, 48 h

| Structure (SMILES) | TGI |
| --- | --- |
| Cc1cn2c(=O)c3ccccc3nc2s1 | > 100 µM |
| O=C(CC(c1ccccc1)N1CCCCC1)c1ccccc1 (stereo not given) | 29.6 µM |
| O=C(c1ccccc1)c1c(-c2ccccc2)[nH]n(-c2ccc([N+](=O)[O-])cc2)c(=O)c1=O | > 100 µM |
| CCN(CC)CCn1nc(N)c2nc3cc(Cl)ccc3nc21 | 74.1 µM |
| Cc1ccc(S(=O)(=O)C2=Cc3ccc(C(F)(F)F)cc3C2(O)c2cccc(C(F)(F)F)c2)cc1 (stereo not given) | 3.35 µM |
| Nc1nc(Cl)cc(NCCO)n1 | > 100 µM |
| COc1cccc(OC)c1/C=C1\OC(=O)c2cccc(OC)c21 | > 100 µM |

Tested on: SF-539 CNS
Assay: NCI anticancer screen, dose series, 48 h

| Structure (SMILES) | TGI |
| --- | --- |
| Cc1cn2c(=O)c3ccccc3nc2s1 | > 100 µM |
| O=C(CC(c1ccccc1)N1CCCCC1)c1ccccc1 (stereo not given) | 39.2 µM |
| O=C(c1ccccc1)c1c(-c2ccccc2)[nH]n(-c2ccc([N+](=O)[O-])cc2)c(=O)c1=O | 88 µM |
| Cc1ccc(S(=O)(=O)C2=Cc3ccc(C(F)(F)F)cc3C2(O)c2cccc(C(F)(F)F)c2)cc1 (stereo not given) | 3.84 µM |
| Nc1nc(Cl)cc(NCCO)n1 | > 100 µM |
| COc1cccc(OC)c1/C=C1\OC(=O)c2cccc(OC)c21 | 6.21 µM |

Tested on: UO-31 renal
Assay: NCI anticancer screen, dose series, 48 h

| Structure (SMILES) | TGI |
| --- | --- |
| Cc1cn2c(=O)c3ccccc3nc2s1 | > 100 µM |
| O=C(CC(c1ccccc1)N1CCCCC1)c1ccccc1 (stereo not given) | 36.8 µM |
| O=C(c1ccccc1)c1c(-c2ccccc2)[nH]n(-c2ccc([N+](=O)[O-])cc2)c(=O)c1=O | > 100 µM |
| CCN(CC)CCn1nc(N)c2nc3cc(Cl)ccc3nc21 | > 100 µM |
| Cc1ccc(S(=O)(=O)C2=Cc3ccc(C(F)(F)F)cc3C2(O)c2cccc(C(F)(F)F)c2)cc1 (stereo not given) | 6.11 µM |
| Nc1nc(Cl)cc(NCCO)n1 | > 100 µM |
| COc1cccc(OC)c1/C=C1\OC(=O)c2cccc(OC)c21 | > 100 µM |

Tested on: KM20L2 colon
Assay: NCI anticancer screen, dose series, 48 h

| Structure (SMILES) | TGI |
| --- | --- |
| Cc1cn2c(=O)c3ccccc3nc2s1 | > 100 µM |

Tested on: NCI-H460 lung
Assay: NCI anticancer screen, dose series, 48 h

| Structure (SMILES) | TGI |
| --- | --- |
| Cc1cn2c(=O)c3ccccc3nc2s1 | > 100 µM |
| O=C(CC(c1ccccc1)N1CCCCC1)c1ccccc1 (stereo not given) | 26.6 µM |
| O=C(c1ccccc1)c1c(-c2ccccc2)[nH]n(-c2ccc([N+](=O)[O-])cc2)c(=O)c1=O | > 100 µM |
| CCN(CC)CCn1nc(N)c2nc3cc(Cl)ccc3nc21 | > 100 µM |
| Cc1ccc(S(=O)(=O)C2=Cc3ccc(C(F)(F)F)cc3C2(O)c2cccc(C(F)(F)F)c2)cc1 (stereo not given) | 6.9 µM |
| Nc1nc(Cl)cc(NCCO)n1 | > 100 µM |
| COc1cccc(OC)c1/C=C1\OC(=O)c2cccc(OC)c21 | > 100 µM |

Tested on: SNB-19 CNS
Assay: NCI anticancer screen, dose series, 48 h

| Structure (SMILES) | TGI |
| --- | --- |
| Cc1cn2c(=O)c3ccccc3nc2s1 | > 100 µM |
| O=C(CC(c1ccccc1)N1CCCCC1)c1ccccc1 (stereo not given) | 36.1 µM |
| O=C(c1ccccc1)c1c(-c2ccccc2)[nH]n(-c2ccc([N+](=O)[O-])cc2)c(=O)c1=O | > 100 µM |
| CCN(CC)CCn1nc(N)c2nc3cc(Cl)ccc3nc21 | > 100 µM |
| Cc1ccc(S(=O)(=O)C2=Cc3ccc(C(F)(F)F)cc3C2(O)c2cccc(C(F)(F)F)c2)cc1 (stereo not given) | 16.8 µM |
| Nc1nc(Cl)cc(NCCO)n1 | > 100 µM |
| COc1cccc(OC)c1/C=C1\OC(=O)c2cccc(OC)c21 | > 100 µM |

Tested on: T-47D breast
Assay: NCI anticancer screen, dose series, 48 h

| Structure (SMILES) | TGI |
| --- | --- |
| O=C(CC(c1ccccc1)N1CCCCC1)c1ccccc1 (stereo not given) | 37.6 µM |
| O=C(c1ccccc1)c1c(-c2ccccc2)[nH]n(-c2ccc([N+](=O)[O-])cc2)c(=O)c1=O | > 100 µM |
| CCN(CC)CCn1nc(N)c2nc3cc(Cl)ccc3nc21 | > 100 µM |
| Cc1ccc(S(=O)(=O)C2=Cc3ccc(C(F)(F)F)cc3C2(O)c2cccc(C(F)(F)F)c2)cc1 (stereo not given) | 11 µM |
| Nc1nc(Cl)cc(NCCO)n1 | > 100 µM |
| COc1cccc(OC)c1/C=C1\OC(=O)c2cccc(OC)c21 | > 100 µM |
